This series can be described thus: Solid-state properties of brigatinib Form A (hygroscopicity, polymorphic conversion). It is filed as physicochemical.

As for `COc1cc(N2CCC(N3CCN(C)CC3)CC2)ccc1Nc1ncc(Cl)c(Nc2ccccc2P(C)(C)=O)n1` [Brigatinib Form A, 5-chloro-N4-[2-(dimethylphosphoryl)phenyl]-N2-{2-methoxy-4-[4-(4-methylpiperazin-1-yl)piperidin-1-yl]phenyl}pyrimidine-2,4-diamine], the hygroscopicity result is “non-hygroscopic”. Also, the “conversion to other polymorphic forms” value (solvent-mediated or solid-solid transitions, elevated temperature, elevated humidity, mechanical pressure or grinding) is listed as “does not convert to other polymorphic forms”.

The values above are taken from patent US20240082275A1, “Pharmaceutical formulations comprising 5-Chloro-N4-[2-(dimethylphosphoryl)phenyl]-N2-{2-methoxy-4-[4-(4-methylpiperazin-1-yl)piperidin-1-yl]phenyl}pyrimidine-2,4-diamine” (Takeda Pharmaceutical Company Limited, priority 2017, published 2024).
